# Test results published in patent US20260365684A1, “PHYTOSPHINGOSINE-3,4-CYCLICPHOSPHATE COMPOUND AND PHARMACEUTICAL COMPOSITION COMPRISING THE SAME” (AXCESO BIOPHARMA CO., LTD., priority 2022, published 2026).
# What was measured:
# TNF-α = TNF-α in serum after CLP treatment by ELISA; type: in vivo, mouse; conditions: serum at 18 hours, treated at 6 and 16 hours after CLP; FIG. 10
# Experimental: (§1) After CLP treatment, the inflammatory cytokines TNF-α and IL-6 were analyzed by ELISA.
# (§2) Specifically, after treating the compound of formula (1a-1) at 6 and 16 hours after CLP treatment, mouse blood was collected at 18 hours and allowed to stand at room temperature for 1 hour, then centrifuged at 3000 rpm for 10 minutes to obtain serum to analyze the amount of TNF-α and IL-6.
# SIRT1 = SIRT1 expression in mouse vascular cells; type: cell-based
# lungs of mice = test: Acute respiratory distress syndrome induced by CLP: lung histology, lung injury score, wet-to-dry weight ratio; type: in vivo, mouse; conditions: treated at 6 and 16 hours after CLP, lungs harvested at 18 hours
# Experimental: CLP induces pulmonary edema due to increased inflammation and disruption of the vascular barrier, resulting in acute respiratory distress syndrome (ARDS). To determine the effect on ARDS, the compound of formula (1a-1) was treated at 6 and 16 hours after CLP treatment in the same manner as in Experimental Example 7 above, the lungs of mice were harvested at 18 hours for histological analysis, and the wet-to-dry weight ratio of the lungs was obtained. For comparison, mice without CLP treatment served as a control group.
# For histologic analysis, the harvested lungs were fixed in 10% paraformaldehyde, infiltrated with paraffin, sectioned into 5 μm-thick tissues, and then de-paraffinized with xylene. Sectioned tissues were mounted on slides, stained with H&E, and observed under an optical microscope. In addition, the lung tissue damage was evaluated by histological score to obtain the lung injury score (LIS) for each group.
# To calculate the wet-to-dry weight ratio, lung organs were harvested 18 hours after CLP treatment, and the wet weight was measured immediately after harvesting, and the dry weight was measured after drying in an oven at 60 °C for 48 hours to calculate the wet-to-dry weight ratio. The wet-to-dry weight ratio is used as an indicator of organ edema formation.
# SH-SY5Y cell lines = test: Proliferation of neurons (SH-SY5Y, Parkinson's disease cell model), EZ-cytox; type: cell-based, human; conditions: 5 days, FIG. 4
# Experimental: A medium containing DMEM/F12 (Hyclone), 10% FBS (Hyclone), and 1% penicillin-streptomycin (Hyclone) was used, and the medium was replaced every two days after seeding on a T75 plate. Subculture was performed when the cell density was 80-90%.
# Then, to determine the neuronal proliferation effect, the subcultured SH-SY5Y cells were seeded in 96 wells at 5×10^3 cells/well. After 1 day, the medium was replaced with a 5% FBS ratio, and the cells were treated with the compound of formula (1a-1) at concentrations serially diluted 2-fold from 500 nM to 15.6 nM and cultured for 5 days. The medium was replaced with 10% FBS containing the drug every other day. The culture medium with 10% FBS was used as a control. After 5 days, the amount of living cells was measured at 450 nm absorbance using EZ-cytox (DoGen) to compare the cell viability.
# [1] = tested on: amyloid beta monomer (monomeric Aβ, mAβ); test: Expression of mAβ in brain of AD-induced animal model by fluorescence microscopy; type: in vivo; conditions: mouse brain, 1 mg/kg i.p. once every 3 days for 2 weeks, FIG. 3
# Experimental: To determine the therapeutic effect on Alzheimer's Disease (AD), the effects on amyloid beta monomer (monomeric Aβ, mAβ) and Tau protein, which are biomarkers of AD, were analyzed in an AD-induced animal model.
# APP/PS/Tau transgenic mice were used as an AD-induced animal model. The compound of formula (1a-1) was administered intraperitoneally once every 3 days at a concentration of 1 mg/kg to 12-week-old transgenic mice for 2 weeks, and the expression of mAβ and Tau proteins in the mouse brain was measured after 1 and 4 weeks. After anesthetizing the mouse, the cervical region was incised with a dissecting tool, and then the occipital region was incised to remove both sides of the skull. The brain was washed with phosphate buffered saline (PBS) and fixed with 4% paraformaldehyde (Sigma, St Louis, MO, USA) for 12 hours at 4 °C. These were cut to a thickness of approximately 10 μm using a vibratome, and hippocampus and cortex sections were collected and placed in 24 wells. PBS was added to the wells containing the fixed tissue sections, and fluorescent nanoparticles (QD565, red fluorescence) conjugated with anti-amyloid antibodies and anti-Tau antibodies (Santa Cruz, USA) were added to each 2 μM, and reacted at 4 °C for 12 hours. The expression of mAβ and Tau was confirmed by fluorescence microscopy.
# IL-6 = IL-6 in serum after CLP treatment by ELISA; type: in vivo, mouse; conditions: serum at 18 hours, treated at 6 and 16 hours after CLP; FIG. 10
# Experimental: as §1, §2
structure (smiles),measurement,setting,value
"CCCCCCCCCCCCCC[C@H]1OP(=O)(O)O[C@H]1[C@@H](N)CO.Cl [formula (1a-1), (4S,5R)-4-((S)-1-amino-2-hydroxyethyl)-2-hydroxy-5-tetradecyl-1,3,2-dioxaphosphoran-2-oxide hydrochloride]",amount of TNF-α,TNF-α,significantly decreased
same,concentration of maximum SIRT1 expression,SIRT1,100 ng/mL
same,"lung tissue damage (histology, H&E)",lungs of mice; FIG. 9A,the lung tissue is almost restored to normal
same,lung injury score (LIS),lungs of mice; FIG. 9B,almost restores the lung injury score to normal
same,wet-to-dry weight ratio of the lung,lungs of mice; FIG. 9C,restores the wet-to-dry weight ratio of the lung to normal
same,proliferation of nerve cells,SH-SY5Y cell lines; 15.6 nM to 500 nM,proliferation of nerve cells increases with increasing concentrations
same,concentration of maximum proliferative potency,SH-SY5Y cell lines,~100 nM
same,red fluorescence for mAβ,[1]; 1 week and 4 weeks after,negligible red fluorescence for mAβ and Tau
same,expression of amyloid,[1],significantly reduced
same,amount of IL-6,IL-6,significantly decreased
